According to patent US4043994A, “New pentapeptides and methods for their production” (Parke, Davis & Company, priority 1976, dated 1977):
“And” between values parts separate entries of the source, which are not always exact repeats. Equal entries are not always repeated. Ends that are not written are not given here.

System: LRF (luteinizing hormone release factor) induced luteinizing hormone (LH) release
Experiment: In vitro LRF antagonist test in rat anterior pituitary cell cultures
Type: cell-based
Settings: for LH Value: culture medium
Excerpt: Pentapeptides of this invention were screened for LRF antagonist activity in vitro using rat anterior pituitary cell cultures as described by Vale et. al. [Endocrinology, 91, 562 (1972)]. The inhibition of LRF (luteinizing hormone release factor) induced luteinizing hormone (LH) release into the culture medium is the endpoint in this in vitro bioassay.

[1] = compound 1×10^-6 molar, LRF 2.5×10^-10 molar
[2] = compound 1×10^-6 molar, LRF 5×10^-10 molar
[3] = compound 5×10^-6 molar, LRF 5×10^-10 molar

## LRF Control: luteinizing hormone releasing factor, also referred to as luteinizing hormone releasing hormone, or LH-RH; the stimulus in the assay (QHWSYGLRPG; ends and bridges not checked; UniProt P01148 24-33, looked up) [reference compound]
LRF alone 2.5×10^-10 molar
  LH Value: 49.90 ng/mL and 28.52 ng/mL
LRF alone 2.5×10^-10 molar, listed as LRF control
  LH Value: 51.62 ng/mL
LRF alone 5×10^-10 molar
  LH Value: 52.93 ng/mL

## N^α -t-Butoxycarbonyl-N^im -benzyl-L-histidyl-O-benzyl-L-seryl-O-benzyl-L-tyrosyl-D-alanyl-L-leucyl hydrazide
[1]
  % LH Release Inhibition: 71%
  LH Value: 19.35 ng/mL

## N^α -t-Butoxycarbonyl-N^im -benzyl-L-histidyl-O-benzyl-L-seryl-O-benzyl-L-tyrosyl-D-alanyl-L-leucine methyl ester
[1]
  % LH Release Inhibition: 72%
  LH Value: 20.26 ng/mL

## CCNC(=O)C1CCCN1C(=O)[C@@H](C)NC(=O)[C@H](Cc1ccc(OCc2ccccc2)cc1)NC(=O)[C@H](COCc1ccccc1)NC(=O)[C@@H](Cc1c[nH]c2ccccc12)NC(=O)OC(C)(C)C (mixture of isomers) [N^α -t-Butoxycarbonyl-D-tryptophyl-O-benzyl-L-seryl-O-benzyl-L-tyrosyl-D-alanyl-DL-proline N-ethylamide]
[1]
  % LH Release Inhibition: 84%
  LH Value: 10.61 ng/mL
[2]
  % LH Release Inhibition: 43%
  LH Value: 34.51 ng/mL
[3]
  % LH Release Inhibition: 90%
  LH Value: 14.02 ng/mL
